{"source": "ChEMBL document CHEMBL5465560", "about": "“Selectivity Literature for EUbOPEN Chemogenomic Library” (2024)", "key": {"[1]": {"molecular_target": "Fibroblast growth factor receptor 1 (Homo sapiens, UniProt P11362)", "experiment": "Selectivity interaction (KinomeScan (DiscoverX)) EUB0001049a FGFR1", "settings": "at 1 µM"}, "[2]": {"test_system": "Tyrosine-protein kinase ABL1 (Homo sapiens), P00519 [F317I]", "sequence (P00519 whole entry F317I)": "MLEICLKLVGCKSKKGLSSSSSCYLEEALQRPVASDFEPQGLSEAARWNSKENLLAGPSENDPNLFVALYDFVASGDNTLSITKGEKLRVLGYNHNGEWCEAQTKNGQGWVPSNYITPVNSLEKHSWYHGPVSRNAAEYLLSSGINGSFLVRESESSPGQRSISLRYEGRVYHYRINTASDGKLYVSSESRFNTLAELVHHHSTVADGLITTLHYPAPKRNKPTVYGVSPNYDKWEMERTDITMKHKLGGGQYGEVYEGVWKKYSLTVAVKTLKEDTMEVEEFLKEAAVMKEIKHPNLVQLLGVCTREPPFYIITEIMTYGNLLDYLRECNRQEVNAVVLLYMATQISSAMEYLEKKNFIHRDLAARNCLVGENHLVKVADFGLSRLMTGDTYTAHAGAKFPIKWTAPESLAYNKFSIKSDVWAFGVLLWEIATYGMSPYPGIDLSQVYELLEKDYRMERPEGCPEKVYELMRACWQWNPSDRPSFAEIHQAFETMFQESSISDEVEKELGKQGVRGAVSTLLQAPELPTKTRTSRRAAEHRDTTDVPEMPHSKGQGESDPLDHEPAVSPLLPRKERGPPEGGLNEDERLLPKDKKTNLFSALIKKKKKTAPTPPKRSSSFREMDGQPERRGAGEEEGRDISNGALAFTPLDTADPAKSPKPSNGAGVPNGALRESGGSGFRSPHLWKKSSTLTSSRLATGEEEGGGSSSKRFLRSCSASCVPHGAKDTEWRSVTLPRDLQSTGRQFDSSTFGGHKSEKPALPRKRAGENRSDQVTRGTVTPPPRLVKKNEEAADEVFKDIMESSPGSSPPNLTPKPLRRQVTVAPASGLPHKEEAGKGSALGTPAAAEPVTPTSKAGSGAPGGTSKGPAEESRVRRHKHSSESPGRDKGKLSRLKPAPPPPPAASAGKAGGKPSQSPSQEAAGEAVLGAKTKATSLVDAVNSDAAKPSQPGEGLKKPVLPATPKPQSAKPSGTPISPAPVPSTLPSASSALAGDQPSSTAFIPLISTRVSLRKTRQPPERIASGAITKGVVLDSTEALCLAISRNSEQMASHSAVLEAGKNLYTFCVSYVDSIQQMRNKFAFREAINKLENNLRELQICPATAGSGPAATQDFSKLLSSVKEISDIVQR", "experiment": "Selectivity interaction (KinomeScan (DiscoverX)) EUB0000666a ABL1", "settings": "at 10 µM"}, "[3]": {"molecular_target": "Angiopoietin-1 receptor (Homo sapiens) (UniProt Q02763)", "sequence (Q02763 whole entry)": "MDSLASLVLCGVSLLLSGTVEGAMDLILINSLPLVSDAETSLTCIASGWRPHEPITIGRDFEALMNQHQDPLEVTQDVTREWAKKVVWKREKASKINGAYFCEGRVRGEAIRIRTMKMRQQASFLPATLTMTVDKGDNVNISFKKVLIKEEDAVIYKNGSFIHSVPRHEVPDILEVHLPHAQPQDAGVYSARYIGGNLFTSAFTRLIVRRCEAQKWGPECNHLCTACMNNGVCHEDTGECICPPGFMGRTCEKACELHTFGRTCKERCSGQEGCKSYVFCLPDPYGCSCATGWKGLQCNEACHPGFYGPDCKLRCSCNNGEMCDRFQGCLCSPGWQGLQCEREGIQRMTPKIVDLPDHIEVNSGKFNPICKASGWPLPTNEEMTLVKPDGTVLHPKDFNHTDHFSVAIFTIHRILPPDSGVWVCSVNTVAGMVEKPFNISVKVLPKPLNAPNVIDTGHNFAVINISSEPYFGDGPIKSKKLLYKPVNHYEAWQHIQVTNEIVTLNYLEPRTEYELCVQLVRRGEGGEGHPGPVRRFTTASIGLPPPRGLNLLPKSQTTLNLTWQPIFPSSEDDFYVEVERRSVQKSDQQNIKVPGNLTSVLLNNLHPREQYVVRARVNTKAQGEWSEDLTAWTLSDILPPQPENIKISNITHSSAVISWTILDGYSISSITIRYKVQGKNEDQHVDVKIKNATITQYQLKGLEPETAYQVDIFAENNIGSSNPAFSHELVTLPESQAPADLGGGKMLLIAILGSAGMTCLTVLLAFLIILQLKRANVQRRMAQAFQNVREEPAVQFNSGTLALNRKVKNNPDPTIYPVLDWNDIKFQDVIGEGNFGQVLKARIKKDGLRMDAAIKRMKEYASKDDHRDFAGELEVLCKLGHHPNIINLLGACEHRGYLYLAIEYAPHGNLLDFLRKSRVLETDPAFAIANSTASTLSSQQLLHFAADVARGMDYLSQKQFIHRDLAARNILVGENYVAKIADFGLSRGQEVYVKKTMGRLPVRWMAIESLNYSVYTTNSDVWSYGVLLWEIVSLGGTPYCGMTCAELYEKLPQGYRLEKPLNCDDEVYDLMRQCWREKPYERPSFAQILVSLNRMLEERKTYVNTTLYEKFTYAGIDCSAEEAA", "experiment": "Selectivity interaction (KinaseProfiler screening (Millipore)) EUB0000601a TEK", "settings": "at 3 µM"}, "[4]": {"molecular_target": "T1, Mitogen-activated protein kinase kinase kinase 3 (Homo sapiens) (UniProt Q99759)", "T1 sequence (whole entry)": "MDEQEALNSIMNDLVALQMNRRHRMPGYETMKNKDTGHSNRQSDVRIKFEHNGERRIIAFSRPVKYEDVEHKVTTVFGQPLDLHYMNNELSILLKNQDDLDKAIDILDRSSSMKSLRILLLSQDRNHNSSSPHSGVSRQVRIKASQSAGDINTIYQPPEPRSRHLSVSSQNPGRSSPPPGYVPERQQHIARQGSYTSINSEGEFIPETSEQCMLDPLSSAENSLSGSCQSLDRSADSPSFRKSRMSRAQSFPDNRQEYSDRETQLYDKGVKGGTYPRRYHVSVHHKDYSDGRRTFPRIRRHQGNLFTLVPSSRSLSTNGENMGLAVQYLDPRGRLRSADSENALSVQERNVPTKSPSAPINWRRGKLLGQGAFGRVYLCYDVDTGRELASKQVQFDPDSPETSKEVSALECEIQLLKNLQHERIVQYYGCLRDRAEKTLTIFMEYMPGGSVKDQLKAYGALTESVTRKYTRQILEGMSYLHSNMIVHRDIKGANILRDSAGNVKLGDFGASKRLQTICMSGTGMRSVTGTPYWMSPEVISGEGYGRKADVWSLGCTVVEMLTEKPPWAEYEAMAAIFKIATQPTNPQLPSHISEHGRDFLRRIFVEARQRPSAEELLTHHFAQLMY", "experiment": "Selectivity interaction (KinomeScan (DiscoverX)) EUB0000229b MAP3K3", "settings": "at 10 µM"}, "[5]": {"molecular_target": "T2, Dual specificity protein kinase TTK (Homo sapiens) (UniProt P33981)", "T2 sequence (whole entry)": "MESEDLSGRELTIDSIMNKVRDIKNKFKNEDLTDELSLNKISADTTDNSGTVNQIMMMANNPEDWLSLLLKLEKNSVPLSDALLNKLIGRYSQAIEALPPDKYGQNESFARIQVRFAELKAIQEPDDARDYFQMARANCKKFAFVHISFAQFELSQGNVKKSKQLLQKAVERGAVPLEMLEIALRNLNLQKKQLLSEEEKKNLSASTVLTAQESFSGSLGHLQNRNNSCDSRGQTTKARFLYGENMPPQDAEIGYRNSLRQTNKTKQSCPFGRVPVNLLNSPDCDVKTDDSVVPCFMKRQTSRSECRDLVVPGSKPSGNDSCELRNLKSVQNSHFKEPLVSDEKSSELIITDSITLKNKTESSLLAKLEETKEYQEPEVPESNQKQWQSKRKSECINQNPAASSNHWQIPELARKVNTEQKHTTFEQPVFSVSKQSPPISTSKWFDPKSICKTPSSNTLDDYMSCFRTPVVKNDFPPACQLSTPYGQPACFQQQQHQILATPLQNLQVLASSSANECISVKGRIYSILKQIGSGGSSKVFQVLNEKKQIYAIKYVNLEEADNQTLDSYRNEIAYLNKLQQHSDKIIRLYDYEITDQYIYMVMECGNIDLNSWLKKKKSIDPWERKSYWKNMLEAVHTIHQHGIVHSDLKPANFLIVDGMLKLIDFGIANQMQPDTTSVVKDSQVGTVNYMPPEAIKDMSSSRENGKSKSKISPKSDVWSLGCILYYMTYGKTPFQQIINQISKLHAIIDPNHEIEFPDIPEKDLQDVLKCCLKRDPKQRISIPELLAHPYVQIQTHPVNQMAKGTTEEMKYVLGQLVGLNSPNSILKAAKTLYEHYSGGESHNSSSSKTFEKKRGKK", "experiment": "Selectivity interaction (Kinase panel (DSF assay)) EUB0001558a TTK"}, "[6]": {"molecular_target": "Tyrosine-protein kinase Srms (Homo sapiens) (UniProt Q9H3Y6)", "sequence (Q9H3Y6 whole entry)": "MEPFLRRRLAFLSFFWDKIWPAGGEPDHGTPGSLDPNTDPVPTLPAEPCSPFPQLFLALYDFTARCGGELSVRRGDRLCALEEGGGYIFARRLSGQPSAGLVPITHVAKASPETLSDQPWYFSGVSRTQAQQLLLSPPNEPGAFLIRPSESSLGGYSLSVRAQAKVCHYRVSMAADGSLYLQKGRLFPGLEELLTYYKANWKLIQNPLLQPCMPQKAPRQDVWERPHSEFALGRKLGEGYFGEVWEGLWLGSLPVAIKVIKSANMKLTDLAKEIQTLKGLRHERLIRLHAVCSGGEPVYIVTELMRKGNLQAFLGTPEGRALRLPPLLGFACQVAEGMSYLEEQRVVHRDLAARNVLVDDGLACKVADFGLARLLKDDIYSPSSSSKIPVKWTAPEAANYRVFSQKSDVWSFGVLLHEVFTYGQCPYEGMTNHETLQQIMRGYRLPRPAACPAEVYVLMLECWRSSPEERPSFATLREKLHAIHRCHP", "experiment": "Selectivity interaction (Kinase panel (Eurofins)) EUB0001564a SRMS", "settings": "at 1 µM"}, "[7]": {"molecular_target": "Beta-2 adrenergic receptor (Homo sapiens, UniProt P07550)", "sequence (P07550 whole entry)": "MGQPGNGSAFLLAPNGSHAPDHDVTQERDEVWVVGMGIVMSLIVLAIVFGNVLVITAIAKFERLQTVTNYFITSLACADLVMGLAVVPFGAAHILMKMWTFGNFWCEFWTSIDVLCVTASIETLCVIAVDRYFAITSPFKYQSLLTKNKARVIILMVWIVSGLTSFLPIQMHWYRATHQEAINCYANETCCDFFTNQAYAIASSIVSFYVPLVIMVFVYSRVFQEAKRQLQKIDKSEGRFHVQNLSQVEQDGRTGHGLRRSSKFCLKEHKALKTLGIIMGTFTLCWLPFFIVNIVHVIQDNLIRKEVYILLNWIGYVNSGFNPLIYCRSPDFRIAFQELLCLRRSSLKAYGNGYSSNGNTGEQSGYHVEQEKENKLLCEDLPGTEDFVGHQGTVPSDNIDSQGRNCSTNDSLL", "experiment": "Selectivity interaction (Beta 2 adrenergic receptor assay, human recombinant ) EUB0000877a ADRB2"}, "[8]": {"molecular_target": "Fibroblast growth factor receptor 3 (Homo sapiens, UniProt P22607)", "sequence (P22607 23-806 limits assumed)": "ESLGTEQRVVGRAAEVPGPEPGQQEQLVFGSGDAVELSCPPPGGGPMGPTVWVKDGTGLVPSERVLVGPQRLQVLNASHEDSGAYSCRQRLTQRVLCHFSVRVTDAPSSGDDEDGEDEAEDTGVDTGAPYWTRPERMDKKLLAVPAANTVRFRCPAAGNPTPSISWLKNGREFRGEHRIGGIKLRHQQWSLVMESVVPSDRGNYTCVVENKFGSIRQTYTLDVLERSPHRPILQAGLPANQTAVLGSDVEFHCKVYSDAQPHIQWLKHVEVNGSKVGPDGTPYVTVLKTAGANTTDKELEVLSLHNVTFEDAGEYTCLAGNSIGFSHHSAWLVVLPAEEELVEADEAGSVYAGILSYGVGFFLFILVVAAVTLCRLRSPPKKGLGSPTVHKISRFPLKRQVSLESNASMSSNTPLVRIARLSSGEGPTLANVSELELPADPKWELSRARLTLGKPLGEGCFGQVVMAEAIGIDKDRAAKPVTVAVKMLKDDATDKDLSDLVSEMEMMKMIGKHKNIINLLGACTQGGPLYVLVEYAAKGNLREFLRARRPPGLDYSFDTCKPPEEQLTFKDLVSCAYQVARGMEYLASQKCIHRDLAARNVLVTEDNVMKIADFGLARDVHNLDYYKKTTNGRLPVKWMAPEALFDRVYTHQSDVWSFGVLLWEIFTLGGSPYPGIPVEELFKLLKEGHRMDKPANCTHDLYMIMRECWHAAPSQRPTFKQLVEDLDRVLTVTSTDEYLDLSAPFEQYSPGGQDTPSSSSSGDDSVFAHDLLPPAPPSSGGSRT", "experiment": "Selectivity interaction (Kinase panel (Invitrogen)) EUB0000639a FGFR3", "settings": "at 200 nM"}, "[9]": {"molecular_target": "Aurora kinase B (Homo sapiens, UniProt Q96GD4)", "experiment": "Selectivity interaction (ActivX KiNativ screen (kinase selectivity in THP-1 cell lysates)) EUB0000639a AURKB", "type": "subcellular", "settings": "lysate, at 0.2 µM"}, "[10]": {"molecular_target": "Focal adhesion kinase 1 (Homo sapiens, UniProt Q05397)", "sequence (Q05397 2-1052 limits assumed)": "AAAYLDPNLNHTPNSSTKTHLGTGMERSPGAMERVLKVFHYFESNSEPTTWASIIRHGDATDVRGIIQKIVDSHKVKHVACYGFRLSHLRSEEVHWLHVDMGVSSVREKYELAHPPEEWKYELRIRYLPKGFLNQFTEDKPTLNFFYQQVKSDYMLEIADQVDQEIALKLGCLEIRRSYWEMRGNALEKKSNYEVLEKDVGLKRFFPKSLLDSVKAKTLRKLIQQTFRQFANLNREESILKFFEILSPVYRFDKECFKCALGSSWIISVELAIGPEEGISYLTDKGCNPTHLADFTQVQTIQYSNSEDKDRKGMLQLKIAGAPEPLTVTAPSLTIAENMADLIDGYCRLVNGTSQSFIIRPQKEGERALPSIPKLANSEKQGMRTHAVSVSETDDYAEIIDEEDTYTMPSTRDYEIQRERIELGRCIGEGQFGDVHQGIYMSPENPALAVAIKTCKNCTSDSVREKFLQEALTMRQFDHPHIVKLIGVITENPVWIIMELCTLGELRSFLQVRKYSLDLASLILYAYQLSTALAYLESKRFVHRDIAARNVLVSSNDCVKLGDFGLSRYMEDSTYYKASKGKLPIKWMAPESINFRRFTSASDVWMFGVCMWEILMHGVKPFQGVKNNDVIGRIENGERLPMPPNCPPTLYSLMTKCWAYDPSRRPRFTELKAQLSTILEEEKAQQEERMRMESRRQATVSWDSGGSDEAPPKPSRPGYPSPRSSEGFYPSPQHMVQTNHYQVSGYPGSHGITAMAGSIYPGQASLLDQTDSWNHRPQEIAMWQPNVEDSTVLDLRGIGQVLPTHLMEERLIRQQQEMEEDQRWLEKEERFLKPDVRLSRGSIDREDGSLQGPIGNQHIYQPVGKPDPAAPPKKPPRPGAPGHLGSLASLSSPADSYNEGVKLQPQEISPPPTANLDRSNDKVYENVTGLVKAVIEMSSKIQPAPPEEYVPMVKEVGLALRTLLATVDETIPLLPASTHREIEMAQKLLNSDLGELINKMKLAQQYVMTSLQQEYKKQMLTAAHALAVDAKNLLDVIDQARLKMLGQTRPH", "experiment": "Selectivity interaction (ActivX KiNativ screen (kinase selectivity in THP-1 cell lysates)) EUB0000639a PTK2", "type": "subcellular", "settings": "lysate, at 5 µM"}, "[11]": {"test_system": "Epidermal growth factor receptor (Homo sapiens), P00533 [UNDEFINED MUTATION]", "experiment": "Selectivity interaction (KinomeScan (DiscoverX)) EUB0000045b EGFR", "settings": "at 1 µM"}, "[12]": {"molecular_target": "Calcium/calmodulin-dependent protein kinase type II subunit beta (Homo sapiens) (UniProt Q13554)", "experiment": "Selectivity interaction (KinomeScan (DiscoverX)) EUB0000618a CAMK2B", "settings": "at 10 µM"}, "[13]": {"molecular_target": "Mitogen-activated protein kinase 3 (Homo sapiens, UniProt P27361)", "settings": "at 10 µM"}}, "data": [{"molecule": "COc1cc(Nc2nc(C)cc(-c3cnn4nc(OC)ccc34)n2)cc(C(F)(F)F)c1", "values": [{"measurement": "% of control", "setting": "[1]", "value": 98, "unit": "%"}]}, {"molecule": "O=C(NOC[C@H](O)CO)c1ccc(F)c(F)c1Nc1ccc(I)cc1F", "values": [{"measurement": "% of control", "setting": "[2]", "value": 100, "unit": "%"}]}, {"molecule": "CCc1cc(Nc2nccc(-c3c(-c4ccc(OC)c(C(=O)Nc5c(F)cccc5F)c4)nc4ccccn34)n2)c(OC)cc1N1CCC(N2CCN(S(C)(=O)=O)CC2)CC1", "values": [{"measurement": "% of inhibition", "setting": "[3]", "value": 41, "unit": "%"}]}, {"molecule": "COc1cc(N(C)c2ccnc3ccc(C(F)(F)F)cc23)cc(OC)c1OC", "values": [{"measurement": "% binding", "setting": "[4]", "value": 89, "unit": "%"}]}, {"molecule": "CC(C)(O)[C@H](F)CN1Cc2cc(NC(=O)c3cnn4cccnc34)c(N3CCOCC3)cc2C1=O", "values": [{"measurement": "dTM", "setting": "[5]", "value": 0.3, "unit": "K"}]}, {"molecule": "CC[C@@H](Nc1c(C#N)c(-c2ccc(-c3cccc(C)c3F)cc2)nc2cnccc12)C(=O)O", "note": "[BAY-091]", "values": [{"measurement": "% of inhibition", "setting": "[6]", "value": 26.3, "unit": "%"}]}, {"molecule": "CCC(=O)N1CC[C@H](Nc2ncnc3c2CN(c2cnc(OC)c(C(F)(F)F)c2)CC3)C1", "note": "[LENIOLISIB]", "values": [{"measurement": "IC50", "setting": "[7]", "value": "> 30", "unit": "µM"}]}, {"molecule": "CC[C@@H]1[C@H](F)C(=O)N[C@@H]1COc1nccc2cc(C(N)=O)c(OC)cc12", "note": "[ZIMLOVISERTIB]", "values": [{"measurement": "% of inhibition", "setting": "[8]", "value": 2.45, "unit": "%"}, {"measurement": "% of inhibition", "setting": "[9]", "value": -1, "unit": "%"}, {"measurement": "% of inhibition", "setting": "[10]", "value": -9.4, "unit": "%"}]}, {"molecule": "C=CC(=O)Nc1cc(-n2c(=O)ccc3cnc4ccc(-c5ccc(NS(C)(=O)=O)cc5)cc4c32)ccc1C", "values": [{"measurement": "% of control", "setting": "[11]", "value": 66, "unit": "%"}]}, {"molecule": "O[C@H]1CC[C@H](Nc2ncc3nc(Nc4c(F)cc(F)cc4F)n([C@H]4CCOC4)c3n2)CC1", "values": [{"measurement": "% of control", "setting": "[12]", "value": 100, "unit": "%"}]}, {"molecule": "Cc1cc([C@@H](C)Nc2ccccc2C(=O)O)c2nc(N3CCOCC3)cc(=O)n2c1", "note": "[AZD-6482]", "values": [{"measurement": "% of control", "setting": "[13]", "value": 95, "unit": "%"}]}]}
